This note sets out measurements from ChEMBL document CHEMBL1151418, “Breviane spiroditerpenoids from an extreme-tolerant Penicillium sp. isolated from a deep sea sediment sample” (J Nat Prod, 2009).

Where a name gives a salt, the structure may show the parent alone.

One data set relates to HIV-1 M:B_Lai. Put plainly: Antiviral activity against HIV-1 M:B_Lai replication in human C8166 cells assessed as inhibition of p24 antigen expression level after 4 days by ELISA. Type of data set: functional, organism-based. The following applies: Human immunodeficiency virus 1, LAI, C8166, 96 h. In general terms: In an ELISA, binding on a coated surface is turned into a signal by an enzyme label.

Another data set deals with HeLa. Description: Growth inhibition of human HeLa cells at 10 ug/mL after 4 hrs by MTT assay. In kind it is functional. The following applies: read-out: GI.
Data set [1] can be described thus: Cytotoxicity against human C8166 cells after 4 days by MTT assay. Type of data set: cell-based. On the technique in general: Tetrazolium assays rely on reduction of a dye to a coloured formazan, in cell work by metabolically active cells.

For orientation: EC50 means the concentration that produces a half-maximal response. As to `CC1=CC(=O)C=C[C@]2(C)[C@H]3[C@H](O)C=C(C)[C@@]4(Cc5c(c(C)c(C)oc5=O)O4)[C@]3(C)CC[C@@H]12` [BREVIONE G], the EC50 in the data set on HIV-1 M:B_Lai is more than 50 µM. Also, in the data set on HeLa, the inhibition of growth at 10 µg/mL is 44.9%.

For `CC(C)(C)NC(=O)[C@@H]1CN(Cc2cccnc2)CCN1C[C@@H](O)C[C@@H](Cc1ccccc1)C(=O)N[C@H]1c2ccccc2C[C@H]1O` [INDINAVIR SULFATE], the half-maximal effective concentration (EC50) in the data set on HIV-1 M:B_Lai came to 0.00871 µM.

The term CC50 denotes the concentration at which the toxic effect on the cells reaches its halfway point. A high value points to better tolerance by the cells. As to `CC1=CC(=O)C=C[C@]2(C)[C@H]3[C@@H](O)C=C(C)[C@@]4(Cc5c(c(C)c(C)oc5=O)O4)[C@]3(C)CC[C@@H]12` [BREVIONE F], in the data set with HIV-1 M:B_Lai, the EC50 is 14.7 µM. Also, the inhibition of growth at 10 µg/mL in the data set with HeLa is 25.2%. In data set [1], this compound displayed a cytotoxic concentration (CC50) at 96 h of more than 100 µM.

Take `CC1=CC(=O)C[C@@H]2O[C@@H]3C=C(C)[C@@]45Oc6c(C)c(C)oc(=O)c6[C@@H]4O[C@H](O)[C@]54CC[C@@H]1[C@@]2(C)[C@@H]34` [BREVIONE H]: the concentration for a half-maximal effect (EC50) with HIV-1 M:B_Lai is more than 50 µM. In addition, in the data set on HeLa, the inhibition of growth at 10 µg/mL was 25.3%.
